Measured values from patent EP0596449A2, “Serotonin receptor antagonists for treating myocardial ischemia” (E.R. SQUIBB & SONS, INC., priority 1992, dated 1994).
“Also recorded” adds a separate entry of the source. Marks after values point to notes of the source that are not given here.

Experiments:
[1] = test system: globally ischemic rat hearts; assay: Parachlorophenylalanine pretreatment of rats, then global ischemia/reperfusion of the isolated hearts; conditions: for time to contracture: parachlorophenylalanine pretreatment i.p., compared to vehicle, p<0.05, Figure 4
Experimental: (§1) To determine the effect of serotonin receptor agonists and antagonists, male Sprague-Dawley rats (450-550 g) were prepared as described below. The rats were anesthetized using 100 mg/kg sodium pentobarbital (i.p.). They were intubated and then treated with i.v. heparin (1000 U/kg). While being mechanically ventilated, their hearts were perfused in situ via retrograde cannulation of the aorta. The hearts were then excised and […] moved to a Langendorff apparatus where they were perfused with Krebs-henseleit bicarbonate buffer solution ((mM): 112 NaCI, 25 NaHC03, 5 KCI, 1.2 MgS04, 1 KH2P04, 1.25 CaC12, 2 pyruvate and 11.5 dextrose bubbled with 95% 02 - 5% C02) at a constant perfusion pressure (85 mm Hg). A water-filled latex balloon attached to a metal cannula was then inserted into the left ventricle and connected to a Statham pressure transducer for measurement of left ventricular pressure. The hearts were allowed to equilibrate for 15 min, at which time end diastolic pressure (EDP) was adjusted to 5 mm Hg and this balloon volume was maintained for the duration of the experiment. Pre-ischemia or pre-drug function, heart rate and coronary flow (extracorporeal electromagnetic flow probe) were then measured. Left ventricular developed pressure (LVDP) was calculated from the difference between left ventricular peak systolic pressure and EDP. Cardiac temperature was maintained throughout the experiment by submerging the hearts in 37 ° C buffer which was allowed to accumulate in a stoppered, heated chamber.
To determine if endogenous 5HT is mediating a pro-ischemic effect in isolated hearts, rats, prepared as described below were treated with parachlorophenylalanine. Parachlorophenylalanine depletes brain and peripheral 5HT by inhibition of tryptophan hydroxylase, the rate limiting step in 5HT synthesis. […] Male Sprague-Dawely rats (450-550 g) were injected with i.p. 105 mg/kg parachlorophenylalanine (n = 10) or its vehicle (water, n = 6) on three consecutive days. On the fourth day, the rats were anesthetized with 100 mg/kg sodium pentobarbital. The hearts were then excised and moved to an isolated heart apparatus as described above. The hearts were then subjected to 25 minutes to global ischemia and 30 minutes of reperfusion. Time to contracture, recovery of contractile function, coronary flow and cumulative LDH release were measured as described above.

[2] = test system: globally ischemic, isolated rat hearts; assay: Effect of 5HT, alone or with 5HT2 antagonist, on time to contracture and pre-ischemic function in isolated rat hearts; conditions: for Coronary Flow / HR / LVDP: pre-ischemic
Experimental: To determine the effect of serotonin receptor agonists and antagonists, male Sprague-Dawley rats (450-550 g) were prepared as described below. The rats were anesthetized using 100 mg/kg sodium pentobarbital (i.p.). They were intubated and then treated with i.v. heparin (1000 U/kg). While being mechanically ventilated, their hearts were perfused in situ via retrograde cannulation of the aorta. […] A water-filled latex balloon attached to a metal cannula was then inserted into the left ventricle and connected to a Statham pressure transducer for measurement of left ventricular pressure. […] Pre-ischemia or pre-drug function, heart rate and coronary flow (extracorporeal electromagnetic flow probe) were then measured. Left ventricular developed pressure (LVDP) was calculated from the difference between left ventricular peak systolic pressure and EDP. Cardiac temperature was maintained throughout the experiment by submerging the hearts in 37 ° C buffer which was allowed to accumulate in a stoppered, heated chamber. In another series of hearts, the effect of 5HT on the severity of ischemia was determined. […] Vehicle (0.1% DMSO) given 10 minutes before ischemia (n = 5). The hearts were subjected to global ischemia as described above and time to contracture determined. Reperfusion function and LDH release were not determined in this group.

[3] = test system: globally ischemic rat hearts; assay: Global ischemia (25 min) and reperfusion (30 min) in isolated perfused rat hearts, 5HT2 antagonists; conditions: for EC25: Rattus norvegicus, drug given 10 minutes before global ischemia, read-out: EC25 (concentration which increased the time to contracture 25% above vehicle group values)
Experimental: as §1
The model of global ischemia in isolated rat hearts was designed such that any protective effects observed are generally due to a direct cardioprotective effect and not to effects on cornonary or peripheral vascular tone. Also, because the hearts are perfused with an oxygenated buffer solution, platelets or the normal components of an inflammatory response are probably not important mediators of the ischemic/reperfusion injury observed in this model. […] Agents which exert their protective effects either through their effects on the peripheral or coronary vasculature such as nitrates or agents which act on blood or act on some component of the inflammatory response such as thromboxane A2 receptor antagonists are generally ineffective in this model.
The hearts were divided into the following groups: 1. Vehicle (0.1% DMSO) treatment beginning 10 minutes before the onset of ischemia (n = 8). 2. 0.3-10 µM ketanserin treatment beginning 10 minutes before the onset of ischemia (n = 4-5 per group). 3. 10 µM ketanserin given only during reperfusion (n = 4). 4. 0.1-10 µM cinanserin treatment beginning 10 minutes before global ischemia (n = 4-10). 5. 1-10 µM LY 53857 treatment beginning 10 minutes before the onset of ischemia (n = 4 per group). After 10 minutes of vehicle or drug pretreatment, the hearts were subjected to 25 minutes of total global ischemia which was initiated by shutting off the perfusate flow. Reperfusion was begun (without drug except in the case of group 3 above) and allowed to continue for 30 minutes. At this time, final measurements of EDP, LVDP and coronary flow were obtained. Cumulative LDH relase was measured in the reperfusate and was used as the index of cellular and membrane viability. In all hearts, the time to contracture during ischemia was measured and used as an index of cardioprotection during ischemia. Time to contracture is defined as the time (minutes) necessary for the first 5 mm Hg increase in EDP to occur during global ischemia. The data were expressed as the percent change in time to contracture from vehicle.

[4] = test system: alpha, Adrenoceptors; assay: Methoxamine-induced contraction in rat aortic rings (alpha1 blocking potency); conditions: 45 minute incubation; Figure 5A
Experimental: In order to determine the alpha1 blocking potency of cinanserin, ketanserin and LY 53857, their effect on methoxamine induced aortic constriction was determined. Male Sprague-Dawley rats were sacrificed using C02. Aortic rings (3 mm in width) were cut, denuded of endothelium by gently rolling the rings on moistened filter paper, and mounted on stainless steel hooks in 20 mL muscle chambers containing oxygenated physiological salt solution (PSS) of the following composition (in mM): 118.4 NaCI, 4.7 KCI, 1.2 MgS04, 1.2 KH2P04, 1.9 CaC12, 25.0 NaHC03, 10.1 D-glucose, and 0.01 mM Na2EDTA maintained at 37 °C. The hooks were connected to Grass FT03C transducers for recording of isometric force development. The rings were stretched to 2 g preload during the equilibration period. During equilibration the rings were periodically stimulated with 24 mM KCI to determine contractility. The effectiveness of endothelial removal was confirmed by the absence of relaxation by 1 µM acetylcholine of a contraction in response to 0.01 µM phenylephrine.
Various concentrations of the test compounds were then added to individual baths and allowed a 45 minute incubation before cumulative concentration response curves for methoxamine (1 nM-30 /1.M) were obtained. Solvent controls were run in parallel. […]

[5] = i.p. 105 mg/kg on three consecutive days, 30 Min. Post-Ischemia
[6] = i.p. 105 mg/kg on three consecutive days, Pre-Ischemia
[7] = 30 μM 5HT + 1 μM Cinanserin, Post-Drug
[8] = 30 μM 5HT + 1 μM Cinanserin, Pre-Drug

In the case of `N[C@@H](Cc1ccc(Cl)cc1)C(=O)O` (racemic) [PCPA, parachlorophenylalanine], the “Coronary Flow” value [1, 5] is reported as 18±2^b mL/min/g, the HR [1, 5] is reported as 275±8^b beats/min and the LVDP [1, 5] is reported as 60±7^a,b mmHg. The “LDH Release” value ([1]; i.p. 105 mg/kg on three consecutive days, 30 Min. Post-Ischemia (during reperfusion)) was 15±2^b u/g, the “Coronary Flow” value [1, 6] was 18 ± 1 mL/min/g and the HR [1, 6] was 271±8 beats/min. The LVDP [1, 6] was 128±11 mmHg, the time to contracture ([1]; listed as Parachlorophenylalanine) was “significantly increased time to contracture” and the time to contracture ([1]; listed as parachlorophenylalanine) was “significantly incareased the time to contracture”.

In the case of `NCCc1c[nH]c2ccc(O)cc12` [5HT, serotonin], the “Coronary Flow” value ([2]; 1 μM 5HT, Post-Drug) is reported as 16 ± 1 mL/min/g, the HR ([2]; 1 μM 5HT, Post-Drug) is reported as 276±5 beats/min and the LVDP ([2]; 1 μM 5HT, Post-Drug) is reported as 141±3 mmHg. The “Coronary Flow” value ([2]; 1 μM 5HT, Pre-Drug) was 16 ± 1 mL/min/g, the HR ([2]; 1 μM 5HT, Pre-Drug) was 273±7 beats/min and the LVDP ([2]; 1 μM 5HT, Pre-Drug) was 145±4 mmHg. For the same molecule, the “Coronary Flow” value ([2]; 10 μM 5HT, Post-Drug) was 20 ± 2 mL/min/g, the HR ([2]; 10 μM 5HT, Post-Drug) was 294±11 beats/min and the LVDP ([2]; 10 μM 5HT, Post-Drug) was 132±7 mmHg. For the same molecule, the “Coronary Flow” value ([2]; 10 μM 5HT, Pre-Drug) was 19 ± 2 mL/min/g, the HR ([2]; 10 μM 5HT, Pre-Drug) was 300±7 beats/min and the LVDP ([2]; 10 μM 5HT, Pre-Drug) was 135±4 mmHg. For the same molecule, the “Coronary Flow” value ([2]; 30 μM 5HT, Post-Drug) was 14 ± 1 mL/min/g, the HR ([2]; 30 μM 5HT, Post-Drug) was 319±20 beats/min and the LVDP ([2]; 30 μM 5HT, Post-Drug) was 103±11 mmHg. For the same molecule, the “Coronary Flow” value ([2]; 30 μM 5HT, Pre-Drug) was 16 ± 1 mL/min/g, the HR ([2]; 30 μM 5HT, Pre-Drug) was 281±15 beats/min and the LVDP ([2]; 30 μM 5HT, Pre-Drug) was 117±5 mmHg. The “Coronary Flow” value ([2]; 100 μM 5HT, Post-Drug) was 15 ± 3 mL/min/g, the HR ([2]; 100 μM 5HT, Post-Drug) was 369±19^a,b beats/min and the LVDP ([2]; 100 μM 5HT, Post-Drug) was 88±8^a,b mmHg. The “Coronary Flow” value ([2]; 100 μM 5HT, Pre-Drug) was 16 ± 2 mL/min/g, the HR ([2]; 100 μM 5HT, Pre-Drug) was 298±10 beats/min and the LVDP ([2]; 100 μM 5HT, Pre-Drug) was 121±8 mmHg. The “effect on the severity of ischemia (time to contracture)” value ([2]; 1 and 10 µM concentrations) was “without any measurable effect”, the time to contracture ([2]; at 30 and 100µM, compared to vehicle, p<0.05, Figure 3) was “significantly reduced time to contracture” and the time to contracture ([2]; at >30 µM) was “significantly decrease time to contracture”.

For `CN(C)CCCSc1ccccc1NC(=O)/C=C/c1ccccc1` [Cinanserin, cinanserin], the “reperfusion LDH release” value ([3]; 1-10 µM, compared to vehicle, Figure 2A) was “Significant reductions in LDH”, the EC25 [3] was 1.6 µM and the “Coronary Flow” value [2, 7] was 18 ± 1 mL/min/g. The HR [2, 7] was 340±11^a,b beats/min, the LVDP [2, 7] was 122±5 mmHg and the “Coronary Flow” value [2, 8] was 19 ± 1 mL/min/g. For the same molecule, the HR [2, 8] was 297±9 beats/min, the LVDP [2, 8] was 139±7 mmHg and the “effect on the pro-ischemic effect of 5HT (time to contracture)” value ([2]; 30 µM 5HT plus antagonist, both given 10 minutes before ischemia, Figure 3) was “completely abolished this pro-ischemic effect; also recorded: abolished the pro-ischemic effect of serotonin”.

For `CC(O)C(C)OC(=O)C1CC2c3cccc4c3c(cn4C(C)C)CC2N(C)C1` (stereo not drawn) [LY 53857], the “Coronary Flow” value ([3]; 1 µM, 30 Min Post-Reperfusion) was 12±1^a mL/min/g, the HR ([3]; 1 µM, 30 Min Post-Reperfusion) was 230±25 beats/min and the LVDP ([3]; 1 µM, 30 Min Post-Reperfusion) was 23±5^a mmHg. The “Coronary Flow” value ([3]; 1 µM, Pre-Ischemia, Post-Drug) was 15 ± 1 mL/min/g, the HR ([3]; 1 µM, Pre-Ischemia, Post-Drug) was 257±6 beats/min and the LVDP ([3]; 1 µM, Pre-Ischemia, Post-Drug) was 132±6 mmHg. The “Coronary Flow” value ([3]; 1 µM, Pre-Ischemia, Pre-Drug) was 17 ± 1 mL/min/g, the HR ([3]; 1 µM, Pre-Ischemia, Pre-Drug) was 270±5 beats/min and the LVDP ([3]; 1 µM, Pre-Ischemia, Pre-Drug) was 141±4 mmHg. The “Coronary Flow” value ([3]; 3 µM, 30 Min Post-Reperfusion) was 13±1^a mL/min/g, the HR ([3]; 3 µM, 30 Min Post-Reperfusion) was 240±13 beats/min and the LVDP ([3]; 3 µM, 30 Min Post-Reperfusion) was 73±7^a,b mmHg. For the same molecule, the “Coronary Flow” value ([3]; 3 µM, Pre-Ischemia, Post-Drug) was 17 ± 1 mL/min/g, the HR ([3]; 3 µM, Pre-Ischemia, Post-Drug) was 265±8 beats/min and the LVDP ([3]; 3 µM, Pre-Ischemia, Post-Drug) was 144±6 mmHg. The “Coronary Flow” value ([3]; 3 µM, Pre-Ischemia, Pre-Drug) was 17 ± 1 mL/min/g, the HR ([3]; 3 µM, Pre-Ischemia, Pre-Drug) was 274±5 beats/min and the LVDP ([3]; 3 µM, Pre-Ischemia, Pre-Drug) was 148±6 mmHg. For the same molecule, the “Coronary Flow” value ([3]; 10 µM, 30 Min Post-Reperfusion) was 15 ± 3 mL/min/g, the HR ([3]; 10 µM, 30 Min Post-Reperfusion) was 250±4 beats/min and the LVDP ([3]; 10 µM, 30 Min Post-Reperfusion) was 86±6^a,b mmHg. For the same molecule, the “Coronary Flow” value ([3]; 10 µM, Pre-Ischemia, Post-Drug) was 21 ± 3 mL/min/g, the HR ([3]; 10 µM, Pre-Ischemia, Post-Drug) was 252±12^a beats/min and the LVDP ([3]; 10 µM, Pre-Ischemia, Post-Drug) was 123±5 mmHg. For the same molecule, the “Coronary Flow” value ([3]; 10 µM, Pre-Ischemia, Pre-Drug) was 20 ± 3 mL/min/g, the HR ([3]; 10 µM, Pre-Ischemia, Pre-Drug) was 288±10 beats/min and the LVDP ([3]; 10 µM, Pre-Ischemia, Pre-Drug) was 130±5 mmHg. The EC25 [3] was 6.1 µM and the “reperfusion LDH release” value ([3]; at 3 and 10 µM concentrations, Figure 2C) was “significantly reduced it”.

With `COc1cc2nc(N3CCN(C(=O)c4ccco4)CC3)nc(N)c2cc1OC` [prazosin] the “concentration from which the methoxamine-tension curve was shifted to the right” value [4] was 1 nM.
